Experimental data taken from patent US11167007B2, “FOXM1 modulators and uses thereof” (City of Hope, priority 2016, dated 2021).

Columns and labels:
FOXM1 [1] = assay: Western blot of FOXM1 levels in GT1-7 CARY cells; format: cell-based, murine; settings: relative to p84 loading control, FIG. 3C
Excerpt: (§1) Western Blot. Cell lysates was separated on a 6% SDS page gel and transferred to a nitrocellulose membrane. The membrane was blocked for one hour in 5% skim milk dissolved in TBS-T and probed with the following antibodies ([…]): FoxM1 (rabbit, GeneTex), AR: 441 (mouse, Santa Cruz Biotechnology), β-catenin (rabbit 9562, Cell Signaling Technology), p84 (mouse, GeneTex) and actin (mouse, Santa Cruz Biotechnology). Horse radish peroxidase linked secondary antibodies were used along with ECL reagents for visualization. Western blots were quantified using Quantity One analysis software (BioRad).
(§2) It has been previously reported that thiostrepton causes decreased levels of FOXM1. Hegde et al, Nat Chem, 3(9):725-31 (2011); Gartel, Front Oncol, 3:150 (2013). […] The nuclear association between FOXM1 and β-catenin increases the transcriptional activity of both factors. Zhang et al, Cancer Cell, 20(4):427-42 (2011). β-catenin is a key AR coactivator in a variety of cells. Yang, J Biol Chem, 277(13):11336-44 (2002); Truica et al, Cancer Res, 60(17):4709-13 (2000). The inventors believed that thiostrepton could inhibit AR activity by limiting access to nuclear β-catenin via FOXM1 depletion. […] As expected, control actin protein was observed primarily in cytoplasmic fraction.

AR = assay: Western blot of AR levels in GT1-7 CARY cells; format: cell-based, murine
Excerpt: as §1, §2

FOXM1 [2] = assay: Immunohistochemistry of FOXM1 in spinal cord; format: in vivo, rat; settings: rats, FIG. 5C
Method: Animals and Drugs. This study was carried out in strict accordance with the recommendations in the Guide for the Care and Use of Laboratory Animals of the National Institutes of Health. All experiments were performed under the IUCAC approval of City of Hope. Animals were purchased from Jackson Laboratory (Bar Harbor, Main). For the pilot pharmacokinetic experiment, nine male Sprague Dawley rats (n=3) were administered 1, 10, or 100 mg/kg intraperitoneal injections thrice per week for four weeks. One hour following the final dose, blood and spinal fluid were collected and analyzed by mass spectrometry. […] Following a treatment period of 7 days, rats were euthanized and organs harvested, weighed and processed for quantitative RT-PCR.
Immunohistochemistry. […] A veterinary pathologist, blinded to the identity of the treatment groups, scored the spinal cord sections based on the intensity of FOXM1 expression, which was typically uniform across the entirety of a section, creating a scale ranging from 0-2 in both white matter and grey matter. […] As a secondary quantification method, Image J was used to determine pixel density of FOXM1 staining. […]
Intact and castrate cohorts were included as controls. […] As a secondary quantification method, Image J was used to determine pixel density of FOXM1 staining. […]

[3] = molecular target: T1, AR with a 65 glutamine tract (disease associated) (Homo sapiens, UniProt P10275, INS80QQQQQQQQQQQQQQQQQQQQQQQQQQQQQQQQQQQQQQQQQQ); assay: Luciferase reporter assay in HEK293 cells transfected with ARQ65; format: cell-based; settings: HEK293, AR 65 glutamines, FIG. 2C
T1 construct: expressed in transfected cells; host or cells: HEK293
T1 sequence (P10275 with tags, fused parts or gaps with the stated changes): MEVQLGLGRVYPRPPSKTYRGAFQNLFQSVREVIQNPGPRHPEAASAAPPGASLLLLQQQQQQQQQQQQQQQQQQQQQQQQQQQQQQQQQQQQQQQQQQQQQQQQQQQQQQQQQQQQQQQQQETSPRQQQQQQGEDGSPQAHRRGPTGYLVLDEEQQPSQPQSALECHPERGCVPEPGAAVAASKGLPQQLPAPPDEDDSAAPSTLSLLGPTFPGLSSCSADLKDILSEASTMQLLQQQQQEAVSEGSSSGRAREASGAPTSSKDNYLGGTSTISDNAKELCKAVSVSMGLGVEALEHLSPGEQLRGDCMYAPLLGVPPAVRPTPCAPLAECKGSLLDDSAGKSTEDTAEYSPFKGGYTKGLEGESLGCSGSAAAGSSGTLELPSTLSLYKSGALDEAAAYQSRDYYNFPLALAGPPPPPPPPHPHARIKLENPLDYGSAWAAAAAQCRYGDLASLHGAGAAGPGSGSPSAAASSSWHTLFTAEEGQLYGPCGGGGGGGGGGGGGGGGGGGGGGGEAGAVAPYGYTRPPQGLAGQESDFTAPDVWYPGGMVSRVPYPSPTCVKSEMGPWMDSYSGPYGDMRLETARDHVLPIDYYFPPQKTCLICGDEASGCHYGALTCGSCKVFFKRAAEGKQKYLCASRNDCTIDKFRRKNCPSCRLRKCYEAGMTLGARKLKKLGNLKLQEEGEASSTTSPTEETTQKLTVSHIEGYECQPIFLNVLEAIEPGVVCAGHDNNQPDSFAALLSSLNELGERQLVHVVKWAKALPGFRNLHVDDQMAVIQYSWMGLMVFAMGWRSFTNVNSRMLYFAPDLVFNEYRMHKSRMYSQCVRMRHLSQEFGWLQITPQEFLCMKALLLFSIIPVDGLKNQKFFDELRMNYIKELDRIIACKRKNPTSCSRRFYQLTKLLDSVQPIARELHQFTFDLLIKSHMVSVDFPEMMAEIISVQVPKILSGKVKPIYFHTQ
Excerpt: Luciferase Reporter Assay. Cells were transfected using Lipofectamine Plus (Invitrogen) with a normalization plasmid (pRL-SV40, Promega) and an androgen responsive plasmid (MMTV-luciferase or PSA-luciferase) as described in Jones et al, ACS Chem Biol, 3(7):412-8 (2008), and, where indicated, with an shRNA plasmid targeting FOXM1 (adapted for mouse FOXM1 sequence targeting) a scrambled control shRNA plasmid, or ARQ24 or ARQ65 plasmids. Christensen et al, PLoS One, 8(1):e54556 (2013). The following day, cells and drugs were distributed to 96-well plates. 24 hours later, luciferase activity was assessed by a dual luciferase assay kit (Promega) on the Tecan plate reader. Samples were run in quadruplicates and a Student's t test was performed to determine significance, where p<0.05 was considered significant.
SBMA is caused by the activity of polyglutamine-expanded AR, and experiments were conducted to investigate the effects of thiostrepton against polyglutamine-expanded AR. AR-negative HEK293 cells were transfected with plasmids encoding AR with a 24 glutamine tract (normal) or with a 65 glutamine tract (disease associated). The polyglutamine-expanded AR was less transcriptionally active than the normal AR, as has been previously documented for such constructs. Kazemi-Esfarjani et al, Hum Mol Genet, 4:523-527 (1995).

Compound: C=C(NC(=O)C(=C)NC(=O)c1csc(C2=N[C@@H]3c4csc(n4)[C@H]4NC(=O)c5csc(n5)[C@H]([C@](C)(O)[C@@H](C)O)NC(=O)[C@H]5CSC(=N5)/C(=C/C)NC(=O)[C@H]([C@@H](C)O)NC(=O)c5csc(n5)[C@]3(CC2)NC(=O)[C@H](C)NC(=O)C(=C)NC(=O)[C@H](C)NC(=O)[C@H]([C@@H](C)CC)N[C@@H]2C=Cc3c([C@H](C)O)cc(nc3[C@H]2O)C(=O)O[C@@H]4C)n1)C(N)=O [thiostrepton]
- FOXM1 levels (Western blot) (FOXM1 [1]): slightly decreased
- AR levels (Western blot) (AR): not consistently decreased
- expression of FOXM1 in the spinal cord, scored by veterinary pathologist (FOXM1 [2]; 100 mg/kg per day, four weeks, IP osmotic pumps): significantly reduced
- FOXM1 staining intensity, Image J pixel density (FOXM1 [2]; spinal cord, relative to untreated): lower intensity
- inhibition of polyglutamine-expanded AR activity (luciferase) [3]: inhibited
